From patent publication US20140357577A1, “HIV Membrane Fusion Inhibitors” (priority 2011, published 2014)
Starred links: 1 amine or outer side, 2 acyl side, 3 side chain; linkers in the order of their positions; H or OH if unused. Non-standard residues stand in square brackets, D forms with d. No end group written: not given here. *: point of attachment. cholesteryl‑oxycarbonylmethyl = CC(C)CCC[C@@H](C)[C@H]1CC[C@H]2[C@@H]3CC=C4C[C@@H](OC(=O)C*)CC[C@]4(C)[C@H]3CC[C@]12C; C(Bzl) = O=C([C@H](CSCc1ccccc1)N[*:1])[*:2]; tBuAla = CC(C)(C)C[C@H](N)C(=O)O; Suc = O=C(CCC(=O)[*:2])[*:1]; Isovaleryl = CC(C)CC(=O)*; hCys = N[C@@H](CCS)C(=O)O; Nva = CCC[C@H](N)C(=O)O; Tba = not defined here

Columns and labels:
[1] = target: gp41 of HIV-1 strain HXB2D with mutation Q40H (HIV-1 strain HXB2D) (UniProt P04578)
[2] = target: gp41 of HIV-1 wild type strain IIIB (HIV-1 strain IIIB)
[3] = system: HIV wild type virus strain IIIB; experiment: Standard Anti-Viral-Experiment (AVE), HIV-1 replication assay in MT4-LTR-EGFP cells, wild type IIIB; type: cell-based; conditions: 3 days, EGFP signal
Outline: (§1)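 MT4-LTR-EGFP cells infected with HIV-1 IIIB, HXB2D or HXB2D gp41 mutants V38A/Q40H alongside serial 4-fold compound dilutions, 3 days at 37° C. EGFP read by laser-scanning microscopy; EC50 by linear interpolation against log concentration. Mutant results given as fold change in EC50 versus wild-type HXB2D.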

HIV-IIIB + 50% HS = experiment: Standard AVE (50% Human Serum), HIV-1 replication assay in MT4-LTR-EGFP cells; type: cell-based; conditions: fold change vs EC50 in the assay without human serum
Outline: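 MT4-LTR-EGFP cells infected with HIV-1 alongside 4-fold serial compound dilutions in 50% human serum, 3 days at 37 °C. EGFP read by laser-scanning microscopy; EC50 by linear interpolation against log concentration, reported as fold change versus EC50 without serum.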

[4] = system: HIV mutant virus strain HXB2D with mutation V38A in the gp41 gene; experiment: Standard AVE, HXB2D site directed mutant V38A; type: cell-based, HIV-1; conditions: fold change vs wild type strain HXB2D
From the text: • Standard Anti-Viral-Experiment “AVE” (wild type HIV strain IIIB+HIV strain HXB2D side directed mutants V38A and Q40H)
The HIV-1 replication assay measures virus replication (HIV wild type virus strain 111B or HXB2D, or a HIV mutant virus strain HXB2D with mutation V38A or Q40H in the gp41 gene) as an induction of enhanced green fluorescent protein (EGFP) expression. The indicator MT4-LTR-EGFP cells contain an EGFP gene under the control of the HIV-1 LTR promoter sequence. Successful HIV-1 infection results in viral Tat protein expression and subsequent induction of EGFP expression. Compounds/peptides inhibiting HIV-1 infection are expected to reduce EGFP expression as compared to the untreated HIV-infected control.
Serial 4-fold dilutions of test compounds/peptides were mixed with HIV-1 (IIIB, HXB2D, or a HXB2D mutant virus (V38A or Q40H)) and MT4-LTR-EGFP cells and incubated at 37° C. After 3 days, the wells were examined for EGFP expression using an argon laser-scanning microscope. The effective compound/peptide concentration inhibiting 50% of the virus-induced EGFP signal (EC50) was determined by linear interpolation of the EGFP signal vs. logarithm of the compound concentration; (T20, C34 and Sifuvirtide were added as reference compounds). For the V38A and Q40H mutant viruses, results were reported as a fold change in EC50, as compared with a drug-susceptible wild type strain HXB2D, which forms the backbone of the mutant virus. • Standard AVE (50% Human Serum)

[5] = system: HIV mutant virus strain HXB2D with mutation Q40H in the gp41 gene; experiment: Standard AVE, HXB2D site directed mutant Q40H; type: cell-based, HIV-1; conditions: fold change vs wild type strain HXB2D
Outline: as §1

Row | Molecule | fold change in EC50, HIV-HXB2D Q40H mutant [1] [fold] | EC50 of HIV-IIIB replication (EGFP) [2] [nM] | fold change in EC50, HIV-IIIB + 50% HS [2] [fold] | EC50 [3] [nM] | HIV-IIIB + 50% HS (Fold change in EC50) (HIV-IIIB + 50% HS) | HIV-HXB2D V38A mutant (fold change in EC50) [4] | HIV-HXB2D Q40H mutant (fold change in EC50) [5]
1 | Sifuvirtide-PBD (peptide) | > 3 | 36400 | 0.8 |  |  |  | 
2 | Ac-ACY-Cha-ACIEALIRAAQEQQEKNEAALR-NH2 [Peptide 59] |  |  |  | 3 | 3 | 18 | 44
3 | Suc-ACYLACIEALIRA[Nva]QEQQEKNEAALR-NH2 (cysteine pairing not given here) [Peptide 46] |  |  |  | 1 | 2 | 6 | 42
4 | Suc-CYLACIEELIRKAQEQQEKNEAAL-Tba-NH2 [27] (Suc-CYLACIEELIRKAQEQQEKNEAAL[tBuAla]-NH2; cysteine pairing not given here) [Peptide 27] |  |  |  | 3 | 0.7 | 28 | 307
5 | Suc-CYLACIEELIRKAQEQQEKNEAAL-Tba-NH2 [23] (Suc-CYLACIEELIRKAQEQQEKNEAAL-{Tba-NH2}; cysteine pairing not given here; reading uncertain; also: printed as Suc-CYLACIEELIRKAQEQQEKNEAAL-Tba-NH2) [Peptide 23] |  |  |  | 1 | 0.6 | 45 | 807
6 | Suc-Hcy-YLA-Hcy-IEALIRAAREQQEKNEALLR-NH2 (Suc-[hCys]YLA[hCys]IEALIRAAREQQEKNEALLR-NH2; also: cyclised, bridge not given here) [Peptide 28] |  |  |  | 0.6 | 4 | 4 | 25
7 | Suc-CYLACIEELIRKAQEQQEKNEAAL-Tba-NH2 [24] (Suc-CYLACIEELIRKAQEQQEKNEAAL-{Tba-NH2}; cysteine pairing not given here; reading uncertain; also: printed as Suc-CYLACIEELIRKAQEQQEKNEAAL-Tba-NH2) [Peptide 24] |  |  |  | 1 | 1 | 26 | 321
8 | Ac-ACYAACIEALIRAAQEQQEKNEAALRGSGC(cholesteryl-oxycarbonylmethyl)-NH2 [81] (Ac-ACYAACIEALIRAAQEQQEKNEAALRGSGC(cholesteryl‑oxycarbonylmethyl)-NH2; cysteine pairing not given here) [Peptide 81] |  |  |  | 0.3 | 4 | 4 | 24
9 | Suc-ANYLALIEAL-Tba-RAAQEQQEKNEAALR-NH2 (reading uncertain; also: chains 1 and 2 are one peptide joined through Tba residue, printed as Suc-ANYLALIEAL-Tba-RAAQEQQEKNEAALR-NH2) [Peptide 11] |  |  |  | 1 | 0.8 | 26 | 368
10 | T20 (peptide) | 49.7 | 17 | 3.9 |  |  |  | 
11 | Ac-A[hCys]YAA[hCys]IEALIRAAQEQQEKNEAALR-NH2 (cysteine pairing not given here) [Peptide 78] |  |  |  | 5 | 3 | 61 | 355
12 | C34 (peptide) | 8.8 | 266 | 0.8 |  |  |  | 
13 | Ac-A[hCys]YAA[hCys]IEALIRKAQEQQEKNEAALR-NH2 (cysteine pairing not given here) [Peptide 79] |  |  |  | 5 | 2 | 27 | 284
14 | Suc-CYLACIEELIRKAGEQQEKNEAAL-Tba-NH2 (Suc-CYLACIEELIRKAGEQQEKNEAAL-{Tba-NH2}; cysteine pairing not given here; reading uncertain; also: printed as Suc-CYLACIEELIRKAGEQQEKNEAAL-Tba-NH2) [Peptide 25] |  |  |  | 0.6 | 3 | 31 | 352
15 | Suc-ACY-Nva-ACIEALIRAAQEQQEKNEAALR-NH2 [Peptide 44] |  |  |  | 2 | 1 | 15 | 160
16 | Isovaleryl-E-C(Bzl)-YLALIEELIRKAQEQQEKNEAALR-NH2 ({Isovaleryl-Glu-C(Bzl)}-YLALIEELIRKAQEQQEKNEAALR-NH2; SMILES CC[C@H](C)[C@H](NC(=O)[C@H](CC(C)C)NC(=O)[C@H](C)NC(=O)[C@H](CC(C)C)NC(=O)[C@H](Cc1ccc(O)cc1)NC(=O)[C@H](CSCc1ccccc1)NC(=O)[C@H](CCC(=O)O)NC(=O)CC(C)C)C(=O)N[C@@H](CCC(=O)O)C(=O)N[C@@H](CCC(=O)O)C(=O)N[C@@H](CC(C)C)C(=O)N[C@H](C(=O)N[C@@H](CCCNC(=N)N)C(=O)N[C@@H](CCCCN)C(=O)N[C@@H](C)C(=O)N[C@@H](CCC(N)=O)C(=O)N[C@@H](CCC(=O)O)C(=O)N[C@@H](CCC(N)=O)C(=O)N[C@@H](CCC(N)=O)C(=O)N[C@@H](CCC(=O)O)C(=O)N[C@@H](CCCCN)C(=O)N[C@@H](CC(N)=O)C(=O)N[C@@H](CCC(=O)O)C(=O)N[C@@H](C)C(=O)N[C@@H](C)C(=O)N[C@@H](CC(C)C)C(=O)N[C@@H](CCCNC(=N)N)C(N)=O)[C@@H](C)CC) [Peptide 18] |  |  |  | 1 | 3 | 3 | 53
17 | Ac-ACYAACIEALIRAAQEQQEKNEAALRGSGC(cholesteryl-oxycarbonylmethyl)-NH2 [87] (Ac-ACYAACIEALIRAAQEQQEKNEAALRGSGC(cholesteryl‑oxycarbonylmethyl)-NH2; cysteine pairing not given here) [Peptide 87] |  |  |  | 0.1 | 14 | 1 | 5
18 | Ac-A[hCys]YAA[hCys]IEALIRAAQEQQEKNEAALR-NH2 (cysteine pairing not given here) [Peptide 77] |  |  |  | 6 | 3 | 39 | 304
19 | Sifuvirtide (peptide) | 2 | 2 | 1 |  |  |  | 
20 | Ac-NNYTSLIHSLIEESQNQQEKNEQELL-NH2 [C34-PBD*] |  | > 49200 |  |  |  |  | 
